From ChEMBL document CHEMBL4507291 (2021)

Assays:
[1] = target: cAMP-dependent protein kinase catalytic subunit alpha (Homo sapiens) (UniProt P17612)
[2] = target: Tyrosine-protein kinase Lyn (Homo sapiens) (UniProt P07948)
[3] = target: Serine/threonine-protein kinase tousled-like 2 (Homo sapiens) (UniProt Q86UE8)
[4] = target: Mitogen-activated protein kinase kinase kinase kinase 1 (Homo sapiens) (UniProt Q92918)
[5] = target: Ribosomal protein S6 kinase alpha-6 (Homo sapiens) (UniProt Q9UK32)
[6] = target: Serine/threonine-protein kinase Nek10 (Homo sapiens) (UniProt Q6ZWH5)
[7] = target: T1, Serine/threonine-protein kinase Nek9 (Homo sapiens) (UniProt Q8TD19)
T1 sequence (whole entry): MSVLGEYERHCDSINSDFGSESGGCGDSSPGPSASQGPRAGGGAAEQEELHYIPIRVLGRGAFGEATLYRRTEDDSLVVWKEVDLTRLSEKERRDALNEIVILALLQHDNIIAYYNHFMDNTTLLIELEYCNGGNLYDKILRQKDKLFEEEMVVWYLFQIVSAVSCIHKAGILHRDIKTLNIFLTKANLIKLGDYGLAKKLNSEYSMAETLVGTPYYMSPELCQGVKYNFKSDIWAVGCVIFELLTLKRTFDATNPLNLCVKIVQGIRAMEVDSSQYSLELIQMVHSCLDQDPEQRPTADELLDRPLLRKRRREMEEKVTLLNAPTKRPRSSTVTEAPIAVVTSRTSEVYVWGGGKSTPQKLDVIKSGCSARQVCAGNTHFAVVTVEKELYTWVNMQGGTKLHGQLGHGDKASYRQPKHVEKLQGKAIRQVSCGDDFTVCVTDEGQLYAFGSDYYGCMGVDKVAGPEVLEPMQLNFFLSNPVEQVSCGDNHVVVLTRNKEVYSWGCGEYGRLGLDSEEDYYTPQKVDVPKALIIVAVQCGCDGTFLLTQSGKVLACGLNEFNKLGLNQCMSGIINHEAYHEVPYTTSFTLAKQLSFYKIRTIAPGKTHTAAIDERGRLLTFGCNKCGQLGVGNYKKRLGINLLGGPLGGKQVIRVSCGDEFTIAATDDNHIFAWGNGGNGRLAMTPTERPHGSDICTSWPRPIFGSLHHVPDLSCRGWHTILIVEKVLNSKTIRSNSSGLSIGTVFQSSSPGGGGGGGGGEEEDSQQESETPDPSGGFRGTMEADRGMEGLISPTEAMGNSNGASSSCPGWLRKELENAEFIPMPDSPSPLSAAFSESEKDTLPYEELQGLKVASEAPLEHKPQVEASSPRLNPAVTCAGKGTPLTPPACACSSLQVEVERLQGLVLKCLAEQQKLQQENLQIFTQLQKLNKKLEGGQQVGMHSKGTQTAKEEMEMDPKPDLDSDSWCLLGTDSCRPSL

[8] = target: Cyclin-dependent kinase 18 (Homo sapiens) (UniProt Q07002)
[9] = test system: Tyrosine-protein kinase ABL1 (Homo sapiens), P00519 [T315I]
[10] = target: T2, Alpha-1D adrenergic receptor (Homo sapiens) (UniProt P25100); settings: Compound concentration 10.0 uM
T2 sequence (whole entry): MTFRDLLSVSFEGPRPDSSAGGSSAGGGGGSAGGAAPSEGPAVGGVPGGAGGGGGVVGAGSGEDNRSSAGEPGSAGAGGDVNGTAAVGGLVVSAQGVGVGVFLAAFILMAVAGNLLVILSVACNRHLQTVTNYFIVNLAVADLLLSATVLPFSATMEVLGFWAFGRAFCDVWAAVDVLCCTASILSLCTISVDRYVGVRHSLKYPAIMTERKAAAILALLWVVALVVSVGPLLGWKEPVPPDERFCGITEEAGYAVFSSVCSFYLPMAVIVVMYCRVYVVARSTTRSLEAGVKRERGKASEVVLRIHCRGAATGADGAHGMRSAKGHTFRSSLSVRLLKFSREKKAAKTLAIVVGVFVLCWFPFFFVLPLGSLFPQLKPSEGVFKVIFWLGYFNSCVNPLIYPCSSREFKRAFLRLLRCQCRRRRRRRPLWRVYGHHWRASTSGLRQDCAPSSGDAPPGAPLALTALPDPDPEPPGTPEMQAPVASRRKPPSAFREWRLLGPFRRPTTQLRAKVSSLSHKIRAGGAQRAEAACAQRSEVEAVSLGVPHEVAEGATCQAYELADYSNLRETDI

[11] = target: RAC-gamma serine/threonine-protein kinase (Homo sapiens) (UniProt Q9Y243)
[12] = test system: Tyrosine-protein kinase ABL1 (Homo sapiens), P00519 [H396P]
[13] = Compound concentration 1000.0 nM
[14] = Compound concentration 100.0 nM

Sequence of Cyclin-dependent kinase 18 (Homo sapiens) (Q07002 whole entry): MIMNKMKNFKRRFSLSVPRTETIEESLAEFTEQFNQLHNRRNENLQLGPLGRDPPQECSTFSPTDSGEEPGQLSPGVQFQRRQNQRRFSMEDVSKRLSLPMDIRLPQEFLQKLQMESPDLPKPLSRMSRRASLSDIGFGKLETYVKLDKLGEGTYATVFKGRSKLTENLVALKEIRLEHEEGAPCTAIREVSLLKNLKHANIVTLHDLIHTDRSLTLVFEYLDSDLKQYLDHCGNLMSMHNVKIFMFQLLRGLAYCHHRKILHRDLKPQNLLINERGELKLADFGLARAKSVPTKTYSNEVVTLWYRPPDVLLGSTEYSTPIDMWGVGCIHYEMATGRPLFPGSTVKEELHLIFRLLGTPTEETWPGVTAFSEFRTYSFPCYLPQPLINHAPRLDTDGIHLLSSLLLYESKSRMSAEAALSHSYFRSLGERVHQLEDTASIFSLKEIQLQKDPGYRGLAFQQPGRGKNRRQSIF
Sequence of Serine/threonine-protein kinase tousled-like 2 (Homo sapiens) (Q86UE8 whole entry, looked up): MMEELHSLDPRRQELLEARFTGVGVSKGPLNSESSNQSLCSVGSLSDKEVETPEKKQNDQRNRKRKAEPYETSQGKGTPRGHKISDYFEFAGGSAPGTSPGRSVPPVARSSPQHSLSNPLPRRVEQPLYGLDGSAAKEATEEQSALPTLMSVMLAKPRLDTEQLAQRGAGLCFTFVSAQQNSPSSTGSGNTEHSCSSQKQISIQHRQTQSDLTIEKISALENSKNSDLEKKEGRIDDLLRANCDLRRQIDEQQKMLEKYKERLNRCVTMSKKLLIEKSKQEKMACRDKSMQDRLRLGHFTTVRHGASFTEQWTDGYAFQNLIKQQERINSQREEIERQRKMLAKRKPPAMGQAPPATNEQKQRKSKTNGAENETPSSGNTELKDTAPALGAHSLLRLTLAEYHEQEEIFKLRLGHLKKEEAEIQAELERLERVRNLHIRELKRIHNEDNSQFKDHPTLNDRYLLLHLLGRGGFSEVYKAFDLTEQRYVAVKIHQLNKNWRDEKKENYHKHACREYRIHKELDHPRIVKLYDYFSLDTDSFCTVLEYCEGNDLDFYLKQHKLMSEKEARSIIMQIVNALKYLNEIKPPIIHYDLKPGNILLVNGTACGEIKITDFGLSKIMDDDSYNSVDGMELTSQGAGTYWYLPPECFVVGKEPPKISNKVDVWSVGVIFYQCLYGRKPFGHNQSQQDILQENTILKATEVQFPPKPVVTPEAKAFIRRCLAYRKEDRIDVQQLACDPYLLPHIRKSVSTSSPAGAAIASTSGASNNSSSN
Sequence of Tyrosine-protein kinase Lyn (Homo sapiens) (P07948 2-512 limits assumed): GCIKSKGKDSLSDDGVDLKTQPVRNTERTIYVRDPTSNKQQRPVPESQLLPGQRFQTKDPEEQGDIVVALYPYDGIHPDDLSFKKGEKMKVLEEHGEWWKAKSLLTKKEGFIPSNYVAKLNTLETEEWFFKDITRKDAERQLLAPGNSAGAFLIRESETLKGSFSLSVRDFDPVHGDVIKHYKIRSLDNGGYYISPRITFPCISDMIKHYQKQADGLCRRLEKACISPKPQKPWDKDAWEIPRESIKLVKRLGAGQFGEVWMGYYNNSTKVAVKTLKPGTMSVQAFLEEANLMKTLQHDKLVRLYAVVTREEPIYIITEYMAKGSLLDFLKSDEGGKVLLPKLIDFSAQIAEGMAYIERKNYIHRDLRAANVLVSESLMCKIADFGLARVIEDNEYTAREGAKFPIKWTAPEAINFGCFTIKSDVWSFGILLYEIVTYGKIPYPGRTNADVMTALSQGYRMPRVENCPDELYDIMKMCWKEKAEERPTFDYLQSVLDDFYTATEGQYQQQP
Sequence of Ribosomal protein S6 kinase alpha-6 (Homo sapiens) (Q9UK32 whole entry): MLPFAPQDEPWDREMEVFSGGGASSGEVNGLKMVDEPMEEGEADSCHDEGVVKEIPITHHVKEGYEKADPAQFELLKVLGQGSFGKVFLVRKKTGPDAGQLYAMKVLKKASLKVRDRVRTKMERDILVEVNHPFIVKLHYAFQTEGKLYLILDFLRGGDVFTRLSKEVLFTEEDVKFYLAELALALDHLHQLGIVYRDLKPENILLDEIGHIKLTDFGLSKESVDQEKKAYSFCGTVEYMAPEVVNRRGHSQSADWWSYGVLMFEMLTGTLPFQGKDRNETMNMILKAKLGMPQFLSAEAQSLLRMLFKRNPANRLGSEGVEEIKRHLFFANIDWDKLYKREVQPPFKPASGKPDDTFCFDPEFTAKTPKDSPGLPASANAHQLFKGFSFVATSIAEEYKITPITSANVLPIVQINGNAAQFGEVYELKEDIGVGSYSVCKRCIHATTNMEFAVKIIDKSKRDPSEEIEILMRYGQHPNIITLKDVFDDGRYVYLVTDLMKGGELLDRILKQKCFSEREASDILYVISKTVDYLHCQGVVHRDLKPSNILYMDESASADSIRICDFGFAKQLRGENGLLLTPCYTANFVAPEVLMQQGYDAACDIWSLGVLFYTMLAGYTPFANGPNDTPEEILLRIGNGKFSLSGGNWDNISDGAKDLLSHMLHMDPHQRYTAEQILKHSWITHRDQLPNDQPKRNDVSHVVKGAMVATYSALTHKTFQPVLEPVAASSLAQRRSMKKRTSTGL
Sequence of Mitogen-activated protein kinase kinase kinase kinase 1 (Homo sapiens) (Q92918 whole entry, looked up): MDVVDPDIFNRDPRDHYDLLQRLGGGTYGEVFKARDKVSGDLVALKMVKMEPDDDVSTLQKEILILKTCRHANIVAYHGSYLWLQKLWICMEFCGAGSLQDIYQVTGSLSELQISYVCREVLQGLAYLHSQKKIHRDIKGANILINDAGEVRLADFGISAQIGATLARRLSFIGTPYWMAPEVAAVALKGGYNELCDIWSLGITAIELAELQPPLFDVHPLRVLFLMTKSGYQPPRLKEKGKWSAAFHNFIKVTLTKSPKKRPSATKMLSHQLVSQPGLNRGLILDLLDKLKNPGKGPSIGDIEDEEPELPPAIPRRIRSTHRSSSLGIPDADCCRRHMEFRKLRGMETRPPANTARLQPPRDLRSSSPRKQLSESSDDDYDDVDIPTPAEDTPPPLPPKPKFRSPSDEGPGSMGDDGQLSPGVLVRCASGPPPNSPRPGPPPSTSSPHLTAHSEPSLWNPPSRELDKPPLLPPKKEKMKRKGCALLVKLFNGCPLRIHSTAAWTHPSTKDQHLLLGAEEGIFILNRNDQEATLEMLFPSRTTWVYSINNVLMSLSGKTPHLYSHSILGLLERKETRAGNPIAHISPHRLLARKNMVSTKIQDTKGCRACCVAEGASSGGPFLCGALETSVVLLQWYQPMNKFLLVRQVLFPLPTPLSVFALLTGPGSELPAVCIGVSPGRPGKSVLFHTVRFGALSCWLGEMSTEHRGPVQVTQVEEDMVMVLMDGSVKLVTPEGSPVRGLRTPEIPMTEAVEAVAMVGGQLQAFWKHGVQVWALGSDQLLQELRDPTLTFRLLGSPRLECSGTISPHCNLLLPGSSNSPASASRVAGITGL
Sequence of Serine/threonine-protein kinase Nek10 (Homo sapiens) (Q6ZWH5 whole entry): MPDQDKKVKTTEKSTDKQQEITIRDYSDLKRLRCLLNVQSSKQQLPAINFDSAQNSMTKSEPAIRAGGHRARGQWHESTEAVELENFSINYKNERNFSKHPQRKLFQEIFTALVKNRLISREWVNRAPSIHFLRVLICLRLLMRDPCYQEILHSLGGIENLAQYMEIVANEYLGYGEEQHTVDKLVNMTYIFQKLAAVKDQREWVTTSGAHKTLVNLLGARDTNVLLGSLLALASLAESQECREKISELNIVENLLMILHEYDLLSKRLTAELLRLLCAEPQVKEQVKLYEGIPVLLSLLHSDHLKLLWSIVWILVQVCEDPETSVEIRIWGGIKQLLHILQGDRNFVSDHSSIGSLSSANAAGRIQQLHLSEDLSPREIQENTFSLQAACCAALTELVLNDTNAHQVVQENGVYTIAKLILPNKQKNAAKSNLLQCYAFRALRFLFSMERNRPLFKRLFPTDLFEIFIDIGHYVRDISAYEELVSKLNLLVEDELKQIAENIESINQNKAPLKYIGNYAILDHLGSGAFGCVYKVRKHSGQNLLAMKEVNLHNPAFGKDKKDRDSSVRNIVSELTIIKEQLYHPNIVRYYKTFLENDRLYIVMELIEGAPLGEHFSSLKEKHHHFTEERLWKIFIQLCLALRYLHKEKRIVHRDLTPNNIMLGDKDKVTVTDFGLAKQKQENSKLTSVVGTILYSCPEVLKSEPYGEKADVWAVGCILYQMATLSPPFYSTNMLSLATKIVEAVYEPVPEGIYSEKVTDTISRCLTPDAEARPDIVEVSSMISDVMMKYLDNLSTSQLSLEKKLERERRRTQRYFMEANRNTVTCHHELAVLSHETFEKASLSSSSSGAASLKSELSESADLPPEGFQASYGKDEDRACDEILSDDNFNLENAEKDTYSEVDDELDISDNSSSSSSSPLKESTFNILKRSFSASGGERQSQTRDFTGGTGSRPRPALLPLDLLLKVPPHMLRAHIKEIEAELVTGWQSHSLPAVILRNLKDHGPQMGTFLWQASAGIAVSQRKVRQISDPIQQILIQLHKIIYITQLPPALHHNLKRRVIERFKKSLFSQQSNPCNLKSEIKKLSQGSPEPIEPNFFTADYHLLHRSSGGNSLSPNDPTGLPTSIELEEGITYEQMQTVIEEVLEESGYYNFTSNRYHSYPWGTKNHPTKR
Sequence of RAC-gamma serine/threonine-protein kinase (Homo sapiens) (Q9Y243 whole entry): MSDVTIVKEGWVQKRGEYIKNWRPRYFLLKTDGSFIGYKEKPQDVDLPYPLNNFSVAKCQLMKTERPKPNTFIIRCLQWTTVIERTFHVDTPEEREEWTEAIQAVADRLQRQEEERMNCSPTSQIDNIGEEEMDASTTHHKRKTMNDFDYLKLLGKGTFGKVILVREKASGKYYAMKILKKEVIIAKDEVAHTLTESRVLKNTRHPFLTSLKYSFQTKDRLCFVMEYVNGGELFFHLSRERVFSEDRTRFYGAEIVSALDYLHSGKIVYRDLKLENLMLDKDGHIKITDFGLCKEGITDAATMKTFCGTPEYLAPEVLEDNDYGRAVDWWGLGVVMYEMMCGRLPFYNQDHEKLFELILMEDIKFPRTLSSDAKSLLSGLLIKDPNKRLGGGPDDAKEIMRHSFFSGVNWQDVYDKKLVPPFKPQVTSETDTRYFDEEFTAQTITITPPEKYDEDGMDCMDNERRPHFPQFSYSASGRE

C[C@@H]1CN(c2cc(-c3nn(C)c4ccc(OC5(C)CC5)cc34)ncn2)C[C@H](C)O1 [MLi-2-NC]
inactive: residual activity [1, 13] 95% | residual activity [2, 13] 82% | residual activity [3, 13] 97% | residual activity [4, 13] 100% | residual activity [5, 13] 78% | residual activity [6, 13] 89% | residual activity [7, 13] 71% | residual activity [8, 13] 100% | residual activity [9, 13] 73% | inhibition [10] 10.2% | residual activity [11, 13] 100% | residual activity [12, 13] 70%

C[C@@H]1CN(c2cc(-c3n[nH]c4ccc(OC5(C)CC5)cc34)ncn2)C[C@H](C)O1 [MLi-2]
inactive: residual activity [1, 14] 85% | residual activity [2, 14] 98% | residual activity [3, 14] 100% | residual activity [4, 14] 84% | residual activity [5, 14] 77% | residual activity [6, 14] 69% | residual activity [7, 14] 100% | residual activity [8, 14] 100% | residual activity [9, 14] 72% | inhibition [10] 3.26% | residual activity [11, 14] 86% | residual activity [12, 14] 71%
